According to patent US5112967A, “Process for synthesizing antibacterial cephalosporin compounds” (Hoffmann-La Roches Inc., priority 1990, dated 1992):
Counter-ions that a name gives are not always drawn. Like-named read-outs stand apart in the source and are kept apart here.

Key:
Assay type in all cases: cell-based
P. aeruginosa Stone 130 [1] = assay: Broth Dilution Method MIC; details: Pseudomonas aeruginosa, STONE130, In Vitro
From the text: (§1) Compounds of the formula I and Ia, including their active geometric and/or optical isomers, their salts and esters and hydrates of those compounds can be used as agents to combat bacterial infections (including urinary tract infections and respiratory infections) in mammalian species, e.g., dogs, cats, horses, etc., and humans. […]. The […] activity of selected compounds of formulas I and Ia as measured by the Minimum Inhibitory Concentration in micrograms/ml utilizing the Agar Well Diffusion Method, Agar Dilution Method or Broth Dilution Method against a variety of Gram-positive and Gram-negative organisms, is as follows:
(§2) In Vitro MIC (ug/ml) Broth Dilution Method

P. aeruginosa B = assay: Broth Dilution Method MIC; details: Pseudomonas aeruginosa
From the text: as §1, §2

P. aeruginosa 1973E = assay: Broth Dilution Method MIC; details: Pseudomonas aeruginosa, In Vitro
From the text: as §1, §2

P. aeruginosa K77/WT = assay: Broth Dilution Method MIC; details: Pseudomonas aeruginosa, In Vitro
From the text: as §1, §2

P. aeruginosa K77/61 = assay: Broth Dilution Method MIC; details: Pseudomonas aeruginosa
From the text: as §1, §2

P. aeruginosa 6148B = assay: Broth Dilution Method MIC; details: Pseudomonas aeruginosa, In Vitro
From the text: as §1, §2

P. aeruginosa 8710 = assay: Broth Dilution Method MIC; details: Pseudomonas aeruginosa
From the text: as §1, §2

P. aeruginosa 5700 = assay: Broth Dilution Method MIC; details: Pseudomonas aeruginosa, In Vitro
From the text: as §1, §2

P. aeruginosa 765 = assay: Broth Dilution Method MIC; details: Pseudomonas aeruginosa, In Vitro
From the text: as §1, §2

P. aeruginosa 503-56 = assay: Broth Dilution Method MIC; details: Pseudomonas aeruginosa, 50356, In Vitro
From the text: as §1, §2

P. aeruginosa 185/H [2] = assay: Broth Dilution Method MIC; details: Pseudomonas aeruginosa, In Vitro
From the text: as §1, §2

P. aeruginosa 8780 = assay: Broth Dilution Method MIC; details: Pseudomonas aeruginosa, In Vitro
From the text: as §1, §2

P. aeruginosa ATCC 27853 = assay: Broth Dilution Method MIC; details: Pseudomonas aeruginosa, ATCC27853, In Vitro
From the text: as §1, §2

S. marscescens SM = assay: Agar Dilution Method MIC; details: In Vitro
From the text: as §1
(§3) In Vitro MIC (ug/ml) Agar Dilution Method

S. aureus 95 = assay: Agar Dilution Method MIC; details: Staphylococcus aureus, In Vitro
From the text: as §1, §3

P. aeruginosa Stone 130 [3] = assay: Agar Dilution Method MIC; details: Pseudomonas aeruginosa, STONE130, In Vitro
From the text: as §1, §3

S. aureus Giorgid = assay: Agar Dilution Method MIC; details: Staphylococcus aureus, In Vitro
From the text: as §1, §3

E. cloacae 9570A = assay: Agar Dilution Method MIC; details: Enterobacter cloacae, In Vitro
From the text: as §1, §3

E. cloacae P99 = assay: Agar Dilution Method MIC; details: Enterobacter cloacae
From the text: as §1, §3

P. vulgaris ATCC 6380 = assay: Agar Dilution Method MIC; details: Proteus vulgaris, ATCC6380, In Vitro
From the text: as §1, §3

S. aureus Smith = assay: Agar Dilution Method MIC; details: Staphylococcus aureus, In Vitro
From the text: as §1, §3

P. mirabilis 190 = assay: Agar Dilution Method MIC; details: Proteus mirabilis, In Vitro
From the text: as §1, §3

P. aeruginosa 185/H [4] = assay: Agar Dilution Method MIC; details: Pseudomonas aeruginosa, In Vitro
From the text: as §1, §3

S. aureus ATCC 25923 = assay: Agar Dilution Method MIC; details: Staphylococcus aureus, ATCC25923, In Vitro
From the text: as §1, §3

P. aeruginosa 130 = assay: Agar Dilution Method MIC; details: Pseudomonas aeruginosa, In Vitro
From the text: as §1, §3

S. aureus 1059B = assay: Agar Dilution Method MIC; details: Staphylococcus aureus, In Vitro
From the text: as §1, §3

[5] = In Vitro, Broth Dilution, P. aeruginosa B, read-out: MIC

Structure (SMILES)	MIC (P. aeruginosa Stone 130 [1]) [µg/mL]	MIC (P. aeruginosa 1973E) [µg/mL]	MIC (P. aeruginosa K77/WT) [µg/mL]	MIC (P. aeruginosa K77/61) [µg/mL]	MIC (P. aeruginosa 6148B) [µg/mL]	MIC (P. aeruginosa 8710; 8710) [µg/mL]	MIC (P. aeruginosa 5700) [µg/mL]	MIC (P. aeruginosa 765) [µg/mL]	MIC (P. aeruginosa 503-56) [µg/mL]	MIC (P. aeruginosa 185/H [2]) [µg/mL]	MIC (P. aeruginosa 8780) [µg/mL]	MIC (P. aeruginosa ATCC 27853) [µg/mL]	MIC (P. aeruginosa B; [5]) [µg/mL]	other results
CC(C)(ON=C(C(=O)NC1C(=O)N2C(C(=O)O)=C(COC(=O)c3ccc(O)c(O)c3)CSC12)c1csc(N)n1)C(=O)O (stereo not drawn) [Compound C, [6R-[6 alpha,7 beta(Z)]]-7-[[(2-amino-4-thiazolyl)(1-carboxy-1-methylethoxy)imino]acetyl]amino]-3-[[3,4-dihydroxybenzoyl)oxy]methyl]-8-oxo-5-thia-1-azabicyclo[4.2.0]oct-2-ene-2-carboxylicacid disodium salt]	0.125	2	0.63	> 0.008	0.031	0.063	2	8	0.25	0.031	> 0.008	32		MIC (P. aeruginosa B): 0.125 µg/mL
CON=C(C(=O)NC1C(=O)N2C(C(=O)O)=C(COC(=O)c3ccc(O)c(O)c3)CSC12)c1csc(N)n1 (stereo not drawn) [Compound A, [6R-[6 alpha,7 beta(Z)]]-7-[[2-amino-4-thiazolyl)(methoxyimino)acetyl]amino]-3-[[[(3,4-dihydroxyphenyl)carbonyl]oxy]methyl]-8-oxo-5-thia-1-azabicyclo[4.2.0]oct-2-ene-2-carboxylic acid monosodium salt]	2	4	1	0.25	2		8	4	4	0.016	0.5	8	2	MIC (P. aeruginosa 8710; In Vitro, Broth Dilution, P. aeruginosa 8710, read-out: MIC): 2 µg/mL
CCN1CCN(C(=O)N[C@@H](C(=O)N[C@@H]2C(=O)N3C(C(=O)O)=C(COC(=O)c4ccc(O)c(O)c4)CS[C@H]23)c2ccccc2)C(=O)C1=O [Compound D, [6R-[6 alpha,7 beta(R*)]]-7-[[[[(4-ethyl-2,4-dioxo-1-piperazinyl)carbonyl]amino]phenyl-acetyl]amino-3-[[(3,4-dihydroxy)benzoyl]oxy]-methyl]-8-oxo-5-thia-1-azabicyclo[4.2.0.]-oct-2-ene-2-carboxylic acid monosodium salt]	0.5	4	0.25	0.016	0.125	0.125	4	128	4	0.125	0.016	0.5	0.25	
CC(=O)Oc1ccc(C(=O)OCC2=C(C(=O)O)N3C(=O)C(NC(=O)C(=NOCC(N)=O)c4csc(N)n4)C3SC2)cc1OC(C)=O (stereo not drawn) [Compound B, [6R-[alpha,7 beta(Z)]]-3-[[[3,4-bis(acetyloxy)benzoyl]oxy]methyl]-7-[[[2-amino-4-thiazolyl][(2-amino-2-oxoethoxy)imino]acetyl]amino]-8-oxo-5-thia-1-azabicyclo[4.2.0]oct-2-ene-2-carboxylic acid monosodium salt]														MIC (S. marscescens SM): 1 µg/mL; MIC (S. aureus 95): 64 µg/mL; MIC (P. aeruginosa Stone 130 [3]): 4 µg/mL; MIC (S. aureus Giorgid): 8 µg/mL; MIC (E. cloacae 9570A): 1 µg/mL; MIC (E. cloacae P99): 32 µg/mL; MIC (P. vulgaris ATCC 6380): 0.016 µg/mL; MIC (S. aureus Smith): 4 µg/mL; MIC (P. mirabilis 190): 0.063 µg/mL; MIC (P. aeruginosa 185/H [4]): 2 µg/mL; MIC (S. aureus ATCC 25923): 2 µg/mL; MIC (P. aeruginosa 130): 4 µg/mL; MIC (S. aureus 1059B): 4 µg/mL
